# According to ChEMBL document CHEMBL2346657, “Synthesis of novel 2-amino-4-(5'-substituted 2'-phenyl-1H-indol-3'-yl)-6-aryl-4H-pyran-3-carbonitrile derivatives as antimicrobial and antioxidant agents” (2013):
# Calls of active or inactive are those of the source. Unless noted, the rule behind the calls is not given here.
# Columns and labels:
# Assay type in all cases: functional
# Pseudomonas aeruginosa [1] = experiment: Antimicrobial activity against Pseudomonas aeruginosa MTCC 1688 at 1000 ug/ml after 24 hrs by cup plate method; conditions: MTCC 1688, 24 h, read-out: IZ
# Aspergillus flavus [2] = experiment: Antimicrobial activity against Aspergillus flavus MTCC 1973 at 500 ug/ml after 72 hrs by cup plate method; conditions: MTCC 1973, 72 h, read-out: IZ
# Klebsiella pneumoniae [3] = experiment: Antimicrobial activity against Klebsiella pneumoniae NCTC 13368 at 1000 ug/ml after 24 hrs by cup plate method; conditions: NCTC 13368, 24 h, read-out: IZ
# Aspergillus niger [4] = experiment: Antimicrobial activity against Aspergillus niger MTCC 281 at 500 ug/ml after 72 hrs by cup plate method; conditions: MTCC 281, 72 h, read-out: IZ
# Aspergillus terreus [5] = experiment: Antimicrobial activity against Aspergillus terreus MTCC 1782 at 1000 ug/ml after 72 hrs by cup plate method; conditions: MTCC 1782, 72 h, read-out: IZ
# Klebsiella pneumoniae [6] = experiment: Antimicrobial activity against Klebsiella pneumoniae NCTC 13368 at 500 ug/ml after 24 hrs by cup plate method; conditions: NCTC 13368, 24 h, read-out: IZ
# Escherichia coli [7] = experiment: Antimicrobial activity against Escherichia coli MTCC 723 at 1000 ug/ml after 24 hrs by cup plate method; conditions: MTCC 723, 24 h, read-out: IZ
# [8] = system: Radical scavenging activity; experiment: Antioxidant activity assessed as DPPH radical scavenging activity at 100 ug/ml
# Escherichia coli [9] = experiment: Antimicrobial activity against Escherichia coli MTCC 723 at 750 ug/ml after 24 hrs by cup plate method; conditions: MTCC 723, 24 h, read-out: IZ
# Staphylococcus aureus [10] = experiment: Antimicrobial activity against Staphylococcus aureus ATCC 29513 at 750 ug/ml after 24 hrs by cup plate method; conditions: ATCC 29513, 24 h, read-out: IZ
# Aspergillus oryzae [11] = experiment: Antimicrobial activity against Aspergillus oryzae MTCC 3567 at 1000 ug/ml after 72 hrs by cup plate method; conditions: MTCC 3567, 72 h, read-out: IZ
# Escherichia coli [12] = experiment: Antimicrobial activity against Escherichia coli MTCC 723 at 500 ug/ml after 24 hrs by cup plate method; conditions: MTCC 723, 24 h, read-out: IZ
# Aspergillus oryzae [13] = experiment: Antimicrobial activity against Aspergillus oryzae MTCC 3567 at 750 ug/ml after 72 hrs by cup plate method; conditions: MTCC 3567, 72 h, read-out: IZ
# Aspergillus flavus [14] = experiment: Antimicrobial activity against Aspergillus flavus MTCC 1973 at 750 ug/ml after 72 hrs by cup plate method; conditions: MTCC 1973, 72 h, read-out: IZ
# Aspergillus terreus [15] = experiment: Antimicrobial activity against Aspergillus terreus MTCC 1782 at 500 ug/ml after 72 hrs by cup plate method; conditions: MTCC 1782, 72 h, read-out: IZ
# [16] = Antioxidant activity assessed as metal chelating activity by measuring inhibition of ferrozine-Fe2+ complex formation at 25 to 100 ug/ml
# Klebsiella pneumoniae [17] = experiment: Antimicrobial activity against Klebsiella pneumoniae NCTC 13368 at 750 ug/ml after 24 hrs by cup plate method; conditions: NCTC 13368, 24 h, read-out: IZ
# Staphylococcus aureus [18] = experiment: Antimicrobial activity against Staphylococcus aureus ATCC 29513 at 1000 ug/ml after 24 hrs by cup plate method; conditions: ATCC 29513, 24 h, read-out: IZ
# Aspergillus terreus [19] = experiment: Antimicrobial activity against Aspergillus terreus MTCC 1782 at 750 ug/ml after 72 hrs by cup plate method; conditions: MTCC 1782, 72 h, read-out: IZ
# Aspergillus oryzae [20] = experiment: Antimicrobial activity against Aspergillus oryzae MTCC 3567 at 500 ug/ml after 72 hrs by cup plate method; conditions: MTCC 3567, 72 h, read-out: IZ
# Aspergillus niger [21] = experiment: Antimicrobial activity against Aspergillus niger MTCC 281 at 750 ug/ml after 72 hrs by cup plate method; conditions: MTCC 281, 72 h, read-out: IZ
# Aspergillus flavus [22] = experiment: Antimicrobial activity against Aspergillus flavus MTCC 1973 at 1000 ug/ml after 72 hrs by cup plate method; conditions: MTCC 1973, 72 h, read-out: IZ
# Pseudomonas aeruginosa [23] = experiment: Antimicrobial activity against Pseudomonas aeruginosa MTCC 1688 at 500 ug/ml after 24 hrs by cup plate method; conditions: MTCC 1688, 24 h, read-out: IZ
# Staphylococcus aureus [24] = experiment: Antimicrobial activity against Staphylococcus aureus ATCC 29513 at 500 ug/ml after 24 hrs by cup plate method; conditions: ATCC 29513, 24 h, read-out: IZ
# Pseudomonas aeruginosa [25] = experiment: Antimicrobial activity against Pseudomonas aeruginosa MTCC 1688 at 750 ug/ml after 24 hrs by cup plate method; conditions: MTCC 1688, 24 h, read-out: IZ
# Aspergillus niger [26] = experiment: Antimicrobial activity against Aspergillus niger MTCC 281 at 1000 ug/ml after 72 hrs by cup plate method; conditions: MTCC 281, 72 h, read-out: IZ
SMILES,zone of inhibition at 1000 µg/mL (Pseudomonas aeruginosa [1]) [mm],zone of inhibition at 500 µg/mL (Aspergillus flavus [2]) [mm],zone of inhibition at 1000 µg/mL (Klebsiella pneumoniae [3]) [mm],zone of inhibition at 500 µg/mL (Aspergillus niger [4]) [mm],zone of inhibition at 1000 µg/mL (Aspergillus terreus [5]) [mm],zone of inhibition at 500 µg/mL (Klebsiella pneumoniae [6]) [mm],zone of inhibition at 1000 µg/mL (Escherichia coli [7]) [mm],Activity [8],zone of inhibition at 750 µg/mL (Escherichia coli [9]) [mm],zone of inhibition at 750 µg/mL (Staphylococcus aureus [10]) [mm],zone of inhibition at 1000 µg/mL (Aspergillus oryzae [11]) [mm],zone of inhibition at 500 µg/mL (Escherichia coli [12]) [mm],zone of inhibition at 750 µg/mL (Aspergillus oryzae [13]) [mm],zone of inhibition at 750 µg/mL (Aspergillus flavus [14]) [mm],zone of inhibition at 500 µg/mL (Aspergillus terreus [15]) [mm],Activity [16],zone of inhibition at 750 µg/mL (Klebsiella pneumoniae [17]) [mm],zone of inhibition at 1000 µg/mL (Staphylococcus aureus [18]) [mm],zone of inhibition at 750 µg/mL (Aspergillus terreus [19]) [mm],zone of inhibition at 500 µg/mL (Aspergillus oryzae [20]) [mm],also measured
Cc1ccc(C2=CC(c3c(-c4ccccc4)[nH]c4ccc(C)cc34)c3c(N)n[nH]c3O2)cc1 (stereo unspecified),4,4,10,9,0,11,10,Active,9,5,9,8,9,4,0,Active,10,5,0,10,zone of inhibition at 750 µg/mL (Aspergillus niger [21]): 9 mm; zone of inhibition at 1000 µg/mL (Aspergillus flavus [22]): 3 mm; zone of inhibition at 500 µg/mL (Pseudomonas aeruginosa [23]): 8 mm; zone of inhibition at 500 µg/mL (Staphylococcus aureus [24]): 7 mm; zone of inhibition at 750 µg/mL (Pseudomonas aeruginosa [25]): 4 mm
Cc1ccc(C2=CC(c3c(-c4ccccc4)[nH]c4ccccc34)c3c(N)nc(=O)[nH]c3O2)cc1 (stereo unspecified),3,3,3,5,3,6,8,Active,7,3,10,7,10,3,3,Active,4,5,3,10,zone of inhibition at 1000 µg/mL (Aspergillus niger [26]): 2 mm; zone of inhibition at 750 µg/mL (Aspergillus niger [21]): 3 mm; zone of inhibition at 1000 µg/mL (Aspergillus flavus [22]): 3 mm; zone of inhibition at 500 µg/mL (Pseudomonas aeruginosa [23]): 5 mm; zone of inhibition at 500 µg/mL (Staphylococcus aureus [24]): 5 mm; zone of inhibition at 750 µg/mL (Pseudomonas aeruginosa [25]): 3 mm
